Data published in PMC11203719, “Mts1 (S100A4) and Its Peptide Demonstrate Cytotoxic Activity in Complex with Tag7 (PGLYRP1) Peptide” (International Journal of Molecular Sciences, 2024).
“Also recorded” adds a separate entry of the source. No end group written: not given here.

Tests used:
Mts1 (S100A4) = biological target: T1, Mts1 (S100A4) (Homo sapiens, UniProt P26447); assay: Microscale thermophoresis, binding to labeled Mts1
T1 construct: a functional fragment of the Tag7 protein (PGLYRP1) and a full-sized Mts1 protein (S100A4); His tag (from vector pQE-30; purified on HisTrap FF) (N); made in house; host or cells: Escherichia coli M15 (pREP4)
T1 sequence (P26447 whole entry, the tested form may be a part): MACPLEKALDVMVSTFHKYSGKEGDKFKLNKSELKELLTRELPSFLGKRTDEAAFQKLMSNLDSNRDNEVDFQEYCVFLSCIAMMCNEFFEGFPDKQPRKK
Description: To evaluate the protein–protein interaction of Mts1 with Tag7 and with peptides, 17.1, 17.1A, and 17.1B, a quantitative microscale thermophoresis method was used to reliably determine the parameters of the interaction of protein complexes.
To study the dissociation constant, purified Mts1 was fluorescently labeled using Alexa Fluor 633 (Invitrogen, Eugene, OR, USA) in accordance with the manufacturer’s protocol. Mts1 (200 nM) was preincubated for 20 min with Tag7-Mts1, 17.1-Mts1, 17.1A-Mts1, and 17.1B-Mts1 in the dark at room temperature in 16 different concentrations, obtained by sequential dilution. To study the dissociation constant of Tag7 with M7, Tag7 was fluorescently labeled using Alexa Fluor 488 (Invitrogen, Eugene, OR, USA) in accordance with the manufacturer’s protocol. Tag7 (200 nM) was preincubated for 20 min with M7 in the dark at room temperature in 16 different concentrations, obtained by sequential dilution. The samples were loaded into glass capillaries of Monolith NT Capillaries (NanoTemper Technologies GmbH, München, Germany) and analyzed by thermophoresis on a Monolith NT 115 nanotemperature apparatus (10% IR laser power). The signal quality was monitored using a NanoTemper Monolith device to detect possible ligand autofluorescence, deposition, aggregation, or ligand-induced changes in the photobleaching rate. The experiments were carried out in at least three repetitions and processed using affinity analysis software (MO Control v.1.6.1, NanoTemper Technologies GmbH, München, Germany).

Hsp70 = conditions: ref [19]; cited from earlier work
Description: Structural and functional analyses of Tag7 made it possible to localize the epitope of this protein necessary for interaction with TNFR1 and Hsp70. […] It was also possible to separate the activities of this bifunctional peptide.

[1] = test system: TNFR1 on the surface of HEK293T cells; assay: Cross-linking (BS3) to TNFR1 on cell surface, anti-TNFR1 pull-down, Western blot; format: binding, human; conditions: 17.1-Mts1 at 1 nM, anti-TNFR1 beads
Description: We investigated the ability of peptide 17.1 to form a complex with Mts1 and TNFR1 on the cell surface. The 17.1-Mts1 complex was added to HEK293T cells with TNFR1s on their surface. After incubation, a crosslinking agent (BS^3) was added, forming covalent bonds between molecules located at a distance of less than 1 nm at the time of addition. Next, the cells were lysed, and membrane proteins were precipitated using anti-TNFR1 antibodies conjugated with magnetic beads. The obtained material was separated using SDS electrophoresis and detected using Western blotting with polyclonal antibodies to Mts1 or Tag7.
A column with CNBr-activated Sepharose 4B (GE Healthcare, Chicago, IL, USA) conjugated with 17.1 was prepared as described in accordance with the manufacture’s protocol. The recombinant Mts1 protein was loaded into a column with 17.1-Sepharose 4B. Then, the material was extensively washed with PBS plus 0.5 M NaCl, followed by PBS, eluted with 0.25 M triethylamine, pH 12. The eluted material was resolved using 12% SDS-PAGE and applied to a nitro-cellulose membrane. […] The chemiluminescence was recorded using iBright (Thermo Fisher Scientific, Boston, MA, USA). […] Protein concentrations were quantified using a Bradford assay kit (Thermo Fisher Scientific, Carlsbad, CA, USA). […]

Tag7-Hsp70 complex = conditions: excess of Mts1; ref [22]; cited from earlier work
Description: (§1) During a study on the anticancer effect of the Tag7-Hsp70 complex on metastatic cells, the second partner of the Tag7 protein was identified. Tag7 interacts with Mts1 (metastasin 1, S100A4), a member of the S-100 family involved in metastasis processes. Both proteins form the Tag7-Mts1 chemotactic complex.

L929 cells = assay: Cytotoxicity, L929 cells; format: cell-based; conditions: complexes of Mts1 with 17.1A, 17.1B or full-sized Tag7; L929 cells (Figure 2b), 24 h, n = 5
TNFR1 = conditions: cited from earlier work; for inhibition of cytotoxic effect of TNFR1 ligands: ref [19]
Description: (§2) We investigated developing cytotoxic processes during TNFR1 activation and found two new proteins interacting with this receptor: the immune system regulator PGLYRP1 (Tag7) and DNA-hydrolyzing autoantibodies. […] For the manifestation of Tag7 cytotoxic action, the presence of a coactivator, stimulating cytotoxicity, is necessary. During antitumor studies, a cytotoxic complex released by human ... || Structural and functional analyses of Tag7 made it possible to localize the epitope of this protein necessary for interaction with TNFR1 and Hsp70. […] It was also possible to separate the activities of this bifunctional peptide.

Mts1 = assay: Affinity chromatography on 17.1-Sepharose with Western blot for Mts1; format: binding, human; conditions: recombinant Mts1 100 ng, 17.1 immobilized on CNBr-activated Sepharose; eluted 0.25 M triethylamine; Mts1 eluted as tetramer
Description: In the previous section, we noted the competition between Hsp70 and Mts1 for the binding center of Tag7. We have shown that Hsp70 interacts with peptide 17.1, which is located at the C-terminal region of the polypeptide chain Tag7. […] The recombinant Mts1 protein (100 ng total protein, 0.1 mg/mL) was applied to CNBr-activated Sepharose with immobilized peptide 17.1. The bound proteins were eluted and analyzed using SDS-PAGE and a subsequent Western blot test with specific anti-Mts1 antibodies. It was shown that Mts1 is present in the eluate in the form of a tetramer (Figure 1).
A column with CNBr-activated Sepharose 4B (GE Healthcare, Chicago, IL, USA) conjugated with 17.1 was prepared as described in accordance with the manufacture’s protocol. The recombinant Mts1 protein was loaded into a column with 17.1-Sepharose 4B. Then, the material was extensively washed with PBS plus 0.5 M NaCl, followed by PBS, eluted with 0.25 M triethylamine, pH 12. The eluted material was resolved using 12% SDS-PAGE and applied to a nitro-cellulose membrane. […] The chemiluminescence was recorded using iBright (Thermo Fisher Scientific, Boston, MA, USA). […] Protein concentrations were quantified using a Bradford assay kit (Thermo Fisher Scientific, Carlsbad, CA, USA). […]

[2] = test system: TNFR1-positive tumor cells; conditions: cited from earlier work
Description: as §2

lymphocytes = conditions: ref [22]; cited from earlier work
Description: as §1

In the case of HRDVQRT [17.1B], the “affinity for Mts1 (in words)” value (Mts1 (S100A4)) is given as “highly specific” and the “affinity for Hsp70” value (Hsp70) is given as “high affinity for Hsp70”.

In the case of “Mts1: recombinant human Mts1 (S100A4) protein”, the “interaction with TNFR1 on cell surface” value [1] is given as “binds to the TNFR1 receptor on the cell surface” and the “displacement of Hsp70 from Tag7-Hsp70 complex” value (Tag7-Hsp70 complex) is given as “displaces Hsp70 from the Tag7-Hsp70 complex”.

For RSNYVLKG [17.1A], the “affinity for Mts1 (in words)” value (Mts1 (S100A4)) is given as “significantly higher apparent Kd; also recorded: low affinity”, the “cytotoxic activity in complex with Mts1” value (L929 cells) is given as “does not contribute to the appearance of cytotoxicity” and the “inhibition of cytotoxic effect of TNFR1 ligands” value (TNFR1) is given as “responsible for binding to TNFR1 and inhibiting cytotoxicity”.

In the case of SNYVLKGHRDVQ [17.1], the “affinity for Mts1 (in words)” value (Mts1 (S100A4)) is given as “highly specific”, the “binding to Mts1” value (Mts1) is given as 17.1 binds to Mts and the “death of tumor cells in combination with Hsp70” value ([2]; in combination with Hsp70, ref [19]) is given as “induces the death of tumor cells”. The “inhibition of cytotoxic effect of TNFR1 ligands” value (TNFR1) was “inhibits the cytotoxic effect of TNFR1 ligands”.

For “Tag7-Mts1: complex of full-sized Tag7 with Mts1”, the Kd (Mts1 (S100A4); first-named partner titrated (16 concentrations) to Alexa Fluor 633-labeled Mts1 (200 nM), 20 min, room temperature, at least three repetitions, mean ± SD) is given as 9.21 ± 1.5 µM, the cytotoxic activity ([2]; previous study, ref [22]) is given as “no cytotoxic activity” and the chemotactic activity (lymphocytes) is given as “induces the movement of lymphocytes along the concentration gradient of this complex”.

In the case of “Tag7: recombinant full-size Tag7 protein (PGLYRP1)”, the “affinity for Mts1 (in words)” value (Mts1 (S100A4)) is given as “significantly higher apparent Kd”, the “cytotoxic activity in complex with Mts1” value (L929 cells) is given as “does not have a cytotoxic effect on cells; also recorded: does not form a cytotoxic complex with the Mts1 protein” and the “inhibition of cytotoxic activity of TNF and other TNFR1 ligands” value (TNFR1; previous work, reference not clearly printed) is given as “acts as an inhibitor of the cytotoxic activity of TNF and other TNFR1 ligands”.
